Reference: the NIST ThermoML archive (doi:10.1021/je9010882)
Several values for one entry are separate records, joined by “and”; a condition that tells them apart may be missing. Identical values can stand only once. Numbers after ± are expanded uncertainties.

What was measured:
[1] = 101 kPa, Liquid; for speed of sound: Pulse-echo method
[2] = xn = mol fraction of the nth substance listed; conditions: 101 kPa, Liquid; for speed of sound: Pulse-echo method

OCCO [1,2-ethanediol]
[1]
Conditions	mass density [kg/m3]	speed of sound
293.15 K	1113.37 ± 0.37	–
298.15 K	–	1654.4 ± 2.2 m/s and 1655.2 ± 2.2 m/s

OCCO [1,2-ethanediol] + CCCCC(CC)CO
Conditions	speed of sound [m/s]
[2], 298.15 K, x1 = 1	1655.2 ± 2.2

OCCO [1,2-ethanediol] + CCCCCCCCCO
Conditions	mass density [kg/m3]
[2], 293.15 K, x1 = 1	1113.37 ± 0.37

OCCO [1,2-ethanediol] + CCCCCCCO
Conditions	speed of sound [m/s]
[2], 298.15 K, x1 = 1	1655.2 ± 2.2

OCCO [1,2-ethanediol] + CCO
[2], 298.15 K
Conditions	mass density [kg/m3]	speed of sound [m/s]
x1 = 0.1002	819.39 ± 0.43	1187.5 ± 2.1
x1 = 0.198	852.357 ± 0.38	1231.7 ± 2.2
x1 = 0.3014	886.918 ± 0.33	1279.7 ± 2.2
x1 = 0.3462	901.797 ± 0.31	–
x1 = 0.3998	–	1328 ± 2.2
x1 = 0.4944	950.526 ± 0.26	1374.9 ± 2.2
x1 = 0.6428	998.611 ± 0.21	1454.5 ± 2.2
x1 = 0.7499	1032.4 ± 0.25	1513.4 ± 2.2
x1 = 0.8498	1063.88 ± 0.3	1569.5 ± 2.2
x1 = 1	–	1654.4 ± 2.2

CCCCC(CC)CO (stereo not given) [2-ethyl-1-hexanol]
[1], 298.15 K
Conditions	mass density [kg/m3]	speed of sound [m/s]
–	828.667 ± 0.42	1318.4 ± 2.2

CCCCC(CC)CO (stereo not given) [2-ethyl-1-hexanol] + OCCO
[2], 298.15 K
Conditions	mass density [kg/m3]	speed of sound [m/s]
x2 = 0	828.667 ± 0.42	1318.4 ± 2.2
x2 = 0.1858	848.929 ± 0.4	1334.2 ± 2.2
x2 = 0.2952	863.973 ± 0.38	1345.5 ± 2.2
x2 = 0.4043	881.937 ± 0.36	1358.8 ± 2.2
x2 = 0.4512	890.807 ± 0.34	–
x2 = 0.4914	899.091 ± 0.34	1372.4 ± 2.2
x2 = 0.599	924.736 ± 0.3	1394.9 ± 2.2
x2 = 0.6996	954.672 ± 0.27	1423.5 ± 2.2
x2 = 0.7985	991.938 ± 0.24	1468.2 ± 2.2
x2 = 0.8507	1015.69 ± 0.26	–
x2 = 0.9	1041.98 ± 0.3	1539.4 ± 2.2

CCO [ethanol]
[1], 298.15 K
Conditions	mass density [kg/m3]	speed of sound [m/s]
–	785.144 ± 0.47	1142 ± 2.1

CCO [ethanol] + OCCO
[2], 298.15 K, x2 = 0
Conditions	mass density [kg/m3]	speed of sound [m/s]
–	785.144 ± 0.47	1142 ± 2.1

CCCCCCCO [heptan-1-ol]
[1], 298.15 K
Conditions	mass density [kg/m3]	speed of sound [m/s]
–	818.793 ± 0.55	1327 ± 2.4

CCCCCCCO [heptan-1-ol] + OCCO
[2], 298.15 K
Conditions	mass density [kg/m3]	speed of sound [m/s]
x2 = 0	818.793 ± 0.55	1327 ± 2.4
x2 = 0.0668	826.183 ± 0.53	1330.3 ± 2.4
x2 = 0.1162	832.262 ± 0.52	–
x2 = 0.2007	843.633 ± 0.49	1339.2 ± 2.3
x2 = 0.2946	858.174 ± 0.46	1346.9 ± 2.3
x2 = 0.4022	877.754 ± 0.43	1359.6 ± 2.3
x2 = 0.4834	895.05 ± 0.39	1371.6 ± 2.3
x2 = 0.5508	911.359 ± 0.38	1384.3 ± 2.3
x2 = 0.6087	927.049 ± 0.35	1398.5 ± 2.3
x2 = 0.6766	948.151 ± 0.31	1418.2 ± 2.3
x2 = 0.7988	994.195 ± 0.26	1470.8 ± 2.2
x2 = 0.894	1041.3 ± 0.3	1538 ± 2.2

CCCCCCCCCO [nonan-1-ol]
[1], Vibrating tube method
Conditions	mass density [kg/m3]
293.15 K	827.65 ± 0.24
298.15 K	824.238 ± 0.25

CCCCCCCCCO [nonan-1-ol] + OCCO
mass density [kg/m3], [2]
Conditions	x2 = 0	x2 = 0.1047	x2 = 0.204	x2 = 0.2878	x2 = 0.3927	x2 = 0.5203	x2 = 0.5982	x2 = 0.703	x2 = 0.7805	x2 = 0.9004
293.15 K	827.65 ± 0.53	837.118 ± 0.51	847.778 ± 0.48	858.547 ± 0.46	874.431 ± 0.43	898.673 ± 0.38	917.33 ± 0.35	948.15 ± 0.31	977.295 ± 0.28	1038.17 ± 0.36
298.15 K	824.238 ± 0.54	833.672 ± 0.51	844.308 ± 0.48	855.056 ± 0.46	870.919 ± 0.42	895.129 ± 0.38	913.771 ± 0.34	944.568 ± 0.29	973.695 ± 0.24	1034.58 ± 0.27
